Measured values from patent US11167007B2, “FOXM1 modulators and uses thereof” (City of Hope, priority 2016, dated 2021).
Entries after “also recorded” stand apart in the source; their conditions may differ.

Columns and labels:
[1] = system: AR; assay: Androgen-responsive luciferase reporter assay in C2C12 cells; type: cell-based, murine; details: treated overnight, FIG. 2A
Text: Luciferase Reporter Assay. Cells were transfected using Lipofectamine Plus (Invitrogen) with a normalization plasmid (pRL-SV40, Promega) and an androgen responsive plasmid (MMTV-luciferase or PSA-luciferase) as described in Jones et al, ACS Chem Biol, 3(7):412-8 (2008), and, where indicated, with an shRNA plasmid targeting FOXM1 (adapted for mouse FOXM1 sequence targeting) a scrambled control shRNA plasmid, or ARQ24 or ARQ65 plasmids. Christensen et al, PLoS One, 8(1):e54556 (2013). The following day, cells and drugs were distributed to 96-well plates. 24 hours later, luciferase activity was assessed by a dual luciferase assay kit (Promega) on the Tecan plate reader. Samples were run in quadruplicates and a Student's t test was performed to determine significance, where p<0.05 was considered significant.
In order to identify potential cell-type selective AR modulators, the FRET-based assay of AR conformation change was utilized. AR signaling is a complex process involving many steps in addition to ligand binding. One crucial step is the ligand-induced conformational change of AR, which brings the carboxy (C)- and amino (N)-termini of the receptor together. Full length AR with cyan fluorescent protein (CFP) or yellow fluorescent protein (YFP) fused to either end (CARY) produces a FRET signal upon AR conformation change (FIG. 1A). This produces an accurate and quantifiable read-out of AR activity. Jones et al, ACS Chem Biol, 3(7):412-8 (2008). Because the interest was in the potential of neuron selective AR inhibitors for treatment of SBMA, the initial screen was carried out in CARY-transfected GT1-7 cells, which are a mouse model of hypothalamic neurons. Liposits et al, Endocrinology, 129(3):1575-83 (1991). Cells were plated in 96 wells and treated with library compounds 24 hours prior to accessing conformational changes by FRET. […] Candidate hits were then further evaluated by dose response. […] In addition to FRET, AR transcriptional activity was also assessed in several cell lines by transfecting cells with a luciferase reporter driven by the human PSA promoter. […]

[2] = system: AR; assay: Androgen-responsive luciferase reporter assay in GT1-7 cells; type: cell-based, murine; details: for inhibition of AR transcriptional activity (luciferase): GT1-7 cells, treated overnight, FIG. 2A; for Fold Difference: GT1-7 luciferase
Procedure: Luciferase Reporter Assay. […] The following day, cells and drugs were distributed to 96-well plates. 24 hours later, luciferase activity was assessed by a dual luciferase assay kit (Promega) on the Tecan plate reader. Samples were run in quadruplicates and a Student's t test was performed to determine significance, where p<0.05 was considered significant.
In order to identify potential cell-type selective AR modulators, the FRET-based assay of AR conformation change was utilized. AR signaling is a complex process involving many steps in addition to ligand binding. One crucial step is the ligand-induced conformational change of AR, which brings the carboxy (C)- and amino (N)-termini of the receptor together. Full length AR with cyan fluorescent protein (CFP) or yellow fluorescent protein (YFP) fused to either end (CARY) produces a FRET signal upon AR conformation change (FIG. 1A). This produces an accurate and quantifiable read-out of AR activity. […] Cells were plated in 96 wells and treated with library compounds 24 hours prior to accessing conformational changes by FRET. […] Candidate hits were then further evaluated by dose response. […] In addition to FRET, AR transcriptional activity was also assessed in several cell lines by transfecting cells with a luciferase reporter driven by the human PSA promoter.

[3] = system: AR activity in spinal cord; assay: RT-qPCR of androgen-regulated transcripts in spinal cord; type: in vivo, rat; details: rats, compared to control treatment, FIG. 5F
Procedure: Animals and Drugs. This study was carried out in strict accordance with the recommendations in the Guide for the Care and Use of Laboratory Animals of the National Institutes of Health. All experiments were performed under the IUCAC approval of City of Hope. Animals were purchased from Jackson Laboratory (Bar Harbor, Main). For the pilot pharmacokinetic experiment, nine male Sprague Dawley rats (n=3) were administered 1, 10, or 100 mg/kg intraperitoneal injections thrice per week for four weeks. One hour following the final dose, blood and spinal fluid were collected and analyzed by mass spectrometry. For the efficacy experiment, rats were divided into 3 groups (n=7) as follows: intact, castrated, and thiostrepton. […] Following a treatment period of 7 days, rats were euthanized and organs harvested, weighed and processed for quantitative RT-PCR.
qRT-PCR. The quantitative RT-PCR method has been described by Jones et al, ACS Chem Biol, 3(7):412-8 (2008). […] Differences between experimental (x) and control (y) samples were normalized to RPL19 transcript levels (androgen unresponsive) and determined with the following calculation: (2^(Ctsgene1-Ctygene1))/(2^(CtxRPL19-CtyRPL19)) One-way analysis of variance was applied to determine statistical significant among groups, where p<0.05 was considered significant. […]

Row | SMILES | inhibition of AR transcriptional activity (luciferase) [1] | inhibition of AR transcriptional activity (luciferase) [2] | Fold Difference ([2]; DHT - 100 nM thiostrepton, Control shRNA) | Fold Difference ([2]; DHT - 100 nM thiostrepton, FOXM1 shRNA) | Fold Difference ([2]; DHT-10 nM thiostrepton, Control shRNA) | Fold Difference ([2]; DHT-10 nM thiostrepton, FOXM1 shRNA) | potency of thiostrepton on AR activity after decreasing FOXM1 expression ([2]; FOXM1 shRNA vs control, GT1-7, FIG. 3B) | androgen-dependent gene transcript levels in spinal cord [3]
1 | C=C(NC(=O)C(=C)NC(=O)c1csc(C2=N[C@@H]3c4csc(n4)[C@H]4NC(=O)c5csc(n5)[C@H]([C@](C)(O)[C@@H](C)O)NC(=O)[C@H]5CSC(=N5)/C(=C/C)NC(=O)[C@H]([C@@H](C)O)NC(=O)c5csc(n5)[C@]3(CC2)NC(=O)[C@H](C)NC(=O)C(=C)NC(=O)C(=C)NC(=O)[C@H](C(C)C)N[C@@H]2C=Cc3c([C@H](C)O)cc(nc3[C@H]2O)C(=O)O[C@@H]4C)n1)C(N)=O [NSC285116, siomycin A] | not C2C12 cells | selectively inhibit AR activity |  |  |  |  |  | 
2 | C=C(NC(=O)C(=C)NC(=O)c1csc(C2=N[C@@H]3c4csc(n4)[C@H]4NC(=O)c5csc(n5)[C@H]([C@](C)(O)[C@@H](C)O)NC(=O)[C@H]5CSC(=N5)/C(=C/C)NC(=O)[C@H]([C@@H](C)O)NC(=O)c5csc(n5)[C@]3(CC2)NC(=O)[C@H](C)NC(=O)C(=C)NC(=O)[C@H](C)NC(=O)[C@H]([C@@H](C)CC)N[C@@H]2C=Cc3c([C@H](C)O)cc(nc3[C@H]2O)C(=O)O[C@@H]4C)n1)C(N)=O [thiostrepton] | not C2C12 cells | most potent; also recorded: nanomolar potency; also recorded: selectively inhibit AR activity | 2.04 | 1.62 | 1.54 | 1.34 | diminished the potency | decreases in three androgen-dependent genes
